# Active and inactive are the calls of the source.
# Biological target: T1, Proto-oncogene tyrosine-protein kinase Src (Homo sapiens, UniProt P12931)
# Assay: Inhibition of human purified recombinant pp60c-src tyrosine kinase
# T1 sequence (P12931 2-536 limits assumed): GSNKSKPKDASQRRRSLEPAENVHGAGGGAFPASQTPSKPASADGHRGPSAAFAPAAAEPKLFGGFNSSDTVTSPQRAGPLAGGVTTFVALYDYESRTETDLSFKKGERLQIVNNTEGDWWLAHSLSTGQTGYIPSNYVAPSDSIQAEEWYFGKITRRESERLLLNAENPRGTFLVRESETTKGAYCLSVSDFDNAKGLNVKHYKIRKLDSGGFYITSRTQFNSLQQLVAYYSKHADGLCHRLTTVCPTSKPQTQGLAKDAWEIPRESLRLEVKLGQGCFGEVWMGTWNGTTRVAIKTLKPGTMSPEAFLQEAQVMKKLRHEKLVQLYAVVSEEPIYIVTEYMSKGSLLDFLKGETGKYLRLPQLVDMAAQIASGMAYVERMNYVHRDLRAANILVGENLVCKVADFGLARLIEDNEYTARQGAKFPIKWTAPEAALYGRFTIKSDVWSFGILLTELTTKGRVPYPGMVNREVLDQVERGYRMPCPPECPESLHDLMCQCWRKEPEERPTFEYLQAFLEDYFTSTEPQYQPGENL
row,SMILES,IC50 [µM]
1,O=C(Nc1cccc(O)c1)c1cc2cccc(O)c2cc1O,150

# Biological target: T1, Proto-oncogene tyrosine-protein kinase Src
# Assay: Inhibition of human purified recombinant p60 c-Src tyrosine kinase at 100 uM
row,SMILES,inhibition [%]
1,Oc1cc(O)cc(/C=C/c2ccc(O)c(O)c2)c1,41
2,O=C(NCc1ccc(O)cc1)c1cc2cccc(O)c2cc1O,49
3,O=C(NCc1ccccc1O)c1cc2cccc(O)c2cc1O,41

# Biological target: T1, Proto-oncogene tyrosine-protein kinase Src
# Assay: nhibition of human purified recombinant pp60c-src tyrosine kinase at 100 uM (Inactive)
row,SMILES,inhibition
1,COc1ccccc1CNC(=O)c1cc2ccc(O)cc2cc1O,inactive
2,COC(=O)c1cc2ccccc2cc1N,inactive

# Biological target: T1, Proto-oncogene tyrosine-protein kinase Src
# Assay: Inhibition of human purified recombinant pp60c-src tyrosine kinase at 100 uM
row,SMILES,inhibition [%]
1,O=C(Nc1cccc(O)c1)c1ccc2cc(O)ccc2c1,45
2,O=C(Nc1cccc(O)c1)c1cc2cccc(O)c2cc1O,51
3,O=C(Nc1ccccc1O)c1cc2cccc(O)c2cc1O,12
4,O=C(NCc1cccc(O)c1)c1cc2ccc(O)cc2cc1O,55
5,COC(=O)c1cc2cccc(O)c2cc1O,5
6,COc1ccccc1CNC(=O)c1cc2cccc(O)c2cc1O,13
7,COc1ccc(NC(=O)c2cc3cccc(O)c3cc2O)cc1,35
8,O=C(Nc1cccc(O)c1)c1cc2ccc(O)cc2cc1O,89
9,O=C(NCc1ccc(O)cc1)c1cc2ccc(O)cc2cc1O,42
10,COc1ccc(CNC(=O)c2cc3cccc(O)c3cc2O)cc1,14
11,Cc1cc(O)c2c(c1)C(=O)c1cc(O)cc(O)c1C2=O,22
12,O=C(Nc1ccc(O)cc1O)c1cc2cccc(O)c2cc1O,14
13,O=C(NCc1ccccc1O)c1cc2ccc(O)cc2cc1O,42
14,O=C(Nc1ccc(O)cc1)c1cc2ccc(O)cc2cc1O,23
15,COc1cccc(NC(=O)c2cc3cccc(O)c3cc2O)c1,33
16,O=C(Nc1ccccc1O)c1cc2ccc(O)cc2cc1O,39
17,COC(=O)c1cc2ccc(O)cc2cc1O,47

# Reference: ChEMBL document CHEMBL1133076, “The design, synthesis and activity of non-ATP competitive inhibitors of pp60(c-src) tyrosine kinase. Part 1: hydroxynaphthalene derivatives” (Bioorg Med Chem Lett, 2000)
